{"source": "patent US6121326A", "about": "“Substituted alkyltetraamine derivatives” (Nippon Zoki Pharmaceutical Co., Ltd., priority 2000, dated 2000)", "note": "pIC50: −log10 of the molar value.", "data": [{"test_system": "Substance P", "test": "Tachykinin antagonistic action: suppression of substance P-induced contraction of isolated guinea pig ileum", "design": "species or system guinea pig (Hartley strain, male)", "conditions": "isotonic contraction, substance P 10^-8 M, 10 minutes treatment with test drug", "experimental": "The compounds of the present invention were tested by an assay using ileum isolated from guinea pigs. Male guinea pigs of the Hartley strain (400 g to 500 g) were fainted and bled out. Then, ileum was isolated and hung in an organ bath filled with a nutritive solution. After an equilibration for 60 minutes, isotonic contraction was recorded. Substance P, a tachykinin agonist, was administered in a dose of 10^-8 M every 15 minutes. Administration of substance P was repeated for 3 to 4 times and it was confirmed that a contraction height for each run became constant. The constant contraction was used as a control. A treatment with the test drug was carried out for 10 minutes and then substance P was administered again and a concentration vs. action curve was prepared. A 50% suppression concentration (lC50) was determined from the concentration vs. action curve of the test drug. The compound of the present invention was used as a test drug and an example of the result of its antagonistic action to substance P is shown in Table 1: […]", "values": [{"smiles": "O=C(/C=C/c1ccc(O)cc1)NCCCN(CCCCN(CCCNC(=O)/C=C/c1ccc(O)cc1)C(=O)/C=C/c1ccc(O)cc1)C(=O)/C=C/c1ccc(O)cc1", "note": "[Compound 2, N1,N5,N10,N14-Tetrakis[3-(4-hydroxyphenyl)-2-propenoyl]tetraazatetradecane]", "pIC50": 7.96}, {"smiles": "CC(=O)Oc1ccc(/C=C/C(=O)NCCCN(CCCCN(CCCNC(=O)/C=C/c2ccc(OC(C)=O)cc2)C(=O)/C=C/c2ccc(OC(C)=O)cc2)C(=O)/C=C/c2ccc(OC(C)=O)cc2)cc1", "note": "[Compound 1, N1,N5,N10,N14-Tetrakis[3-(4-acetoxyphenyl)-2-propenoyl]tetraazatetradecane]", "pIC50": 7.85}, {"smiles": "COc1cc(/C=C/C(=O)NCCCN(CCCCN(CCCNC(=O)/C=C/c2ccc(O)c(OC)c2)C(=O)/C=C/c2ccc(O)c(OC)c2)C(=O)/C=C/c2ccc(O)c(OC)c2)ccc1O", "note": "[Compound 4, N1,N5,N10,N14-Tetrakis[3-(4-hydroxy-3-methoxyphenyl)-2-propenoyl]tetraazatetradecane]", "pIC50": 6.24}, {"smiles": "COc1cc(/C=C/C(=O)NCCCN(CCCCN(CCCNC(=O)/C=C/c2ccc(OC(C)=O)c(OC)c2)C(=O)/C=C/c2ccc(OC(C)=O)c(OC)c2)C(=O)/C=C/c2ccc(OC(C)=O)c(OC)c2)ccc1OC(C)=O", "note": "[Compound 3, N1,N5,N10,N14-Tetrakis[3-(4-acetoxy-3-methoxyphenyl)-2-propenoyl]tetraazatetradecane]", "pIC50": 6.15}]}]}
